Experimental data taken from patent publication US7081247B2, “Composition and method for inhibiting polar capsule discharge and protecting a subject from nematocyst sting” (priority 2002, dated 2006).

What was measured:
[1] = tested on: isolated nematocyst capsules; conditions: 50 mM CaCl2; cited from earlier work
[2] = tested on: Aiptasia Mutabilis acontial filament nematocysts; conditions: 2 mM in seawater medium; cited from earlier work
[3] = tested on: nematocyte batteries in the oral arms of Pelagia nociluca; conditions: applied through a gelatin probe; cited from earlier work
[4] = tested on: jellyfish Rhopilema nomadica nematocysts; assay: Inhibition of nematocyst discharge into human skin samples (immunohistochemical analysis); type: cell-based; conditions: human skin sections, 10 seconds contact with jellyfish tentacles
Description: Normal human skin was obtained from neonatal elective circumcision. The skin was immediately placed into sterile phosphate buffered saline (PBS) containing antibiotic/antimycotic. The tissue was frozen and embedded in Tissue-TekTM. It was then sectioned into 50 μm sections using a cryostat. The sections were attached to superfrost/plus microscope slide (Fisherbrand) and maintained at […] until time of use. All sections were examined to ensure that they were perpendicular to the plane of the epidermis, exposing cross-sections of epidiermis, dermis and sub-cutaneos tissue.
For immunoassay tests to detect cnidaria stinging level of human skin, a polyclonal antibody specific for nematocyst toxin was prepared, as described in Lotan et al (1996).
Briefly, the HPLC fraction containing the toxin phospholipase A2 from the jellyfish Rhopilema nomadica was isolated and injected into rabbits as described in Vaitukaitis, pp. 46–52, “Immunochemical Techniques, Part B,” in Methods in enzymology, vol. 73, ed. Larson & Vunkis (academic Press, New York, 1981). Serum was collected from the rabbits after two injections, and the presence of antibody against the jellyfish toxin was examined on immunoblots.
The slides prepared and frozen as described above were thawed at room temperature. The slides were submersed in sea water and then attached to jellyfish or sea anemone tentacles for 10 seconds. The tentacles were detached, the slide washed with PBS, and blocked using 5% Fetal Bovine Serum, and 0.1% Triton X100 in PBS (blocking solution). All washing incubation steps were conducted on a tilting shaker at room temperature. The slides were incubated at 10 ml of block solution containing a 1:2, 500 dilution of the anti-toxin antibody for one hour. After incubation, the slide were washed five times for five minutes each wash with 100 mL of 0.1% TritonX100 in PBS (Wash solution). […]
Twelve sections of human skin samples were tested in each experiment. […] The number of nematocysts that penetrated the skin was determined using immunohistochemical analysis.

[5] = Water resistance of ointment on virgin wool squares in seawater (atomic absorption); type: physicochemical; conditions: 80 RPM
Description: To determine the water resistance of an ointment containing 50 mM LaCl3, prepared according the above-described conditions, three squares (10×10 CM) of virgin wool, keratin protein that is used as a substrate to approximate human skin, were used. Each square of wool was treated with 1-gram of ointment containing 50 mM LaCl3. After 20 minutes of drying at room temperature, the squares of wool were immersed in one liter of seawater and agitated (80 RPM) for 30 minutes, 60 minutes, or 120 minutes. The ointment was extracted separately from each square of wool with 50 ml 1% Tritox100 under boiling. The Lanthanum chloride concentration of each sample of extracted ointment was monitored with the use of atomic absorption.

## [Ca+2].[Cl-].[Cl-] [CaCl2]
[1]
  discharge of isolated nematocyst capsules: do not discharge

## [Cl-].[Cl-].[Co+2] [CoCl2, reference compound]
[2]
  effect on nematocyst discharge: inactivates nematocyst discharge

## [Gd+3] [Gd^+3]
[3]
  effect on discharge of nematocyte batteries: prevents discharge

## [Cl][La]([Cl])[Cl] [LaCl3, Lanthanum Chloride]
[4]; 2 mM LaCl3 in ointment
  inhibition of nematocyst penetration: 44%
[4]; 5 mM LaCl3 in ointment
  reduction in the sting: 76%
[4]; 50 mM LaCl3 in lotion
  reduction of the sting: 92%
[5]; ointment containing 50 mM LaCl3, 30 minutes water submersion
  LaCl3 retained in the ointment: 90%
[5]; ointment containing 50 mM LaCl3, 60 minutes water submersion
  Lanthanum remaining in the ointment: 77%
[5]; ointment containing 50 mM LaCl3, 120 minutes water submersion
  LaCl3 left in the ointment: 70%
[2]
  effect on nematocyst discharge: inactivates nematocyst discharge
